From patent US5229413A, “Compositions containing indole-2-carboxylate compounds for treatment of CNS disorders” (G. D. Searle & Co., priority 1992, dated 1993)
Where two headings read alike, the source gives them in different places.

Columns and labels:
[1] = target: N-methyl-D-aspartate (NMDA) receptor site; assay: Glutamate (NMDA) binding assay, L-[3H]glutamate, synaptic plasma membranes; details: L-[3H]glutamate 12.5 nM, pH 7.4, 0-4° C.; read-out: Ki apparent, NMDA
Experimental: The purpose of this assay is to determine the binding affinity of a compound of Formula I for the N-methyl-D-aspartate (NMDA) receptor site. This procedure was carried out as follows:
Synaptic plasma membranes (SPM) were prepared as previously described [Monahan, J. B. and Michel, J., "Identification and Characterization of an N-methyl-D-aspartate-specific L-[^3 H]glutamate Recognition Site in Synaptic Plasma Membranes, J. Neurochem., 48, 1699-1708 (1987)]. The SPM were stored at a concentration of 10-15 mg/ml in 0.32 M sucrose, 0.5 mM EDTA, 1 mM MgSO4, 5 mM Tris/SO4, pH 7.4, under liquid nitrogen. The identity and purity of the subcellular fractions were confirmed by both electron microscopy and marker enzymes. Protein concentrations were determined by using a modification of the method of Lowry [Ohnishi, S. T. and Barr, J. K., "A Simplified Method of Quantitating Proteins Using the Biuret and Phenol Reagents", Anal. Biochem., 86, 193-197 (1978)]. The SPM were thawed at room temperature, diluted twenty-fold with 50 mM Tris/acetate, pH 7.4, incubated at 37° C. for 30 minutes, and centrifuged at 100,000 g for 15 minutes. The dilution, incubation, and centrifugation was repeated a total of three times. This general method involved adding 12.5 nM of the L-[^3 H]glutamate radioligand to the appropriate concentration of the test compound and initiating the assay by the addition of ice cold SPM (0.2-0.45 mg). The binding assays were performed in 1.5 ml centrifuge tubes with the total volume adjusted to 1.0 ml. Additions of test compounds were made in 50 mM Tris/acetate, pH 7.4 and incubations were carried out at 0°-4° C. The incubation time for the NMDA binding assay was 10 minutes. To terminate the incubation, the samples were centrifuged for 15 minutes at 12,000 g and 4° C. in a Beckman Microfuge 12. The supernatant was aspirated and the pelleted membranes dissolved in Beckman Ready-Protein scintillation cocktail and the samples counted on a Beckman LS 5800 or 3801 liquid scintillation counter with automatic corrections for quenching and counting efficiency. Nonspecific binding was defined as the residual binding in the presence of 0.5 mM NMDA and was typically 15-25% of the total binding in the NMDA binding assay. Radioligand binding to the SPM was analyzed using Scatchard and Hill transformations and the Ki values of the compounds determined using logit-log transformations. Calculations and regression analysis were performed using templates developed for Lotus 1, 2, 3 as previously described [Pullan, L. M. "Automated Radioligand Receptor Binding Analysis with Templates for Lotus", Computer Appln. Biosci., 3 131 (1987)]. Binding results are reported in Table II for example compounds of the invention.

[2] = target: T1, strychnineinsensitive glycine recognition site (NMDA receptor-ion channel complex) (Rattus norvegicus, UniProt P35439); assay: Glycine binding assay, [3H]glycine, synaptic plasma membranes
T1 construct: Synaptic plasma membranes (SPM) were prepared from rat forebrain; from tissue; host or cells: rat forebrain synaptic plasma membranes
Experimental: Synaptic plasma membranes (SPM) were prepared from rat forebrain and stored as previously described [J. B. Monahan and J. Michel, J. Neurochem, 48, 1699-1708 (1987)]. Frozen membranes were thawed and diluted 1:20 with 0.04% triton X-100 in 50 mM tris/acetate (pH 7.4). Following incubation at 37° C. for 30 min., the SPM were collected by centrifugation at 95,000 X g for 15 min. The pellet was resuspended in 50 mM tris/acetate (pH 7.4, triton-free) and hand-homogenized five times. The membranes were again centrifuged as above. The pellet was washed two additional times with 50 mM tris/acetate (without homogenization) and centrifuged. The final pellet was resuspended with homogenization in 50 mM tris/acetate.
In the general receptor binding assay procedure, 10 nM [^3 H]glycine was added to the appropriate concentration of the test compounds and the assay initiated by the addition of 0.2-0.4 mg of ice cold SPM. The assay, which was done in 1.5 ml centrifuge tubes, was adjusted to a total volume of 1.0 ml with all additions being made in 50 mM tris/ acetate, pH 7.4 at 4° C. After a 10 minute incubation at 2° C., the samples were centrifuged for 15 min. at 12,000 g (4° C.) in a Beckman Microfuge 12. The supernatant was aspirated and the tube tip containing the pelleted membranes cut off and agitated in 0.5 ml of Beckman BTS-450 tissue solubilizer for a minimum of 6 hours at room temperature. Beckman MP scintillation cocktail (5 ml) containing 7 ml/liter acetic acid was then added and the samples counted on a Beckman LS 5800 liquid scintillation counter with automatic corrections for quenching and counting efficiency. […] The binding of [^3 H]glycine to the SPM was analyzed using Scatchard and Hill transformations and the Ki for other compounds was determined using logit-log analysis. Calculations and regression analysis were performed using templates developed for Lotus 123 as previously described [Pullan et al, Id.].

[3] = target: T2, NMDA receptor (rat brain receptor expressed in Xenopus oocytes) (Rattus norvegicus, UniProt P35439); assay: Xenopus oocytes injected with rat cortex mRNA, blocking of glycine effects (voltage clamp); format: cell-based; details: 100 μM NMDA
T2 construct: PolyA+ RNA (mRNA) was extracted from adult male rat cortex; expressed in transfected cells; host or cells: Xenopus laevis oocytes microinjected with rat cortex poly(A)+ RNA
Experimental: PolyA+ RNA (mRNA) was extracted from adult male rat cortex using the refined guanidinium thiocyanate method developed by Han et al [J. H. Han et al., Biochemistry, 26, 1617-1625 (1987)] and the oligo (dT) cellulose chromatography procedure of Adiv and Leder [H. Aviv et al., Proc. Nat. Acad. Sci., 69, 1408-1412 (1972)]. Aliquots of mRNA (1.0 mg/ml water) were stored at -20° C.
Gravid adult female Xenopus laevis (Xenopus One, Ann Arbor, Mich. or NASCO, Ft. Atkinson, Wis.) were anaesthetized with 0.2% (w/v) Tricaine (3-amino benzoic acid ethyl ester; Sigma) and subjected to partial ovarectomy. Excised oocytes were then prepared and microinjected [N. W. Kleckner et al, Science 241 835-837 (1988)]. Oocytes were treated for one hour in Barth's solution (88.0 mM NaCl, 1.0 mM KCl, 2.4 mM NaHCO3, 0.41 mM CaCl2, 0.82 mM MgSO4, 10.0 μg/ml penicillin, 100.0 μg/ml streptomycin, 10.0 mM HEPES, pH 7.5) containing 1.5 mg/ml Neutral Protease (Beohringer Mannheim Biochemicals, Grade II). Oocytes were then placed in Barth's solution containing 100.0 mM sucrose and manually defolliculated with fine forceps. Defolliculated oocytes were then microinjected with approximately 50 ng of mRNA in Barth's solution at 16°-18° C.
Oocytes were assayed 2-8 days later for rat brain receptor expression via single electrode voltage. clamp (Axoclamp 2A, Axon Instruments) in a manner similar to that previously described [Kleckner et al, Id.]. […] Drugs were added to the perfusate and inward currents induced by agonist compounds were measured at peak steady state response. […] Antagonist compounds were perfused for a minimum of 3.0 minutes prior to subsequent agonist co-application. Data are expressed as percent maximal response (mean±S.E.M.). Half-maximal responses (EC50 's) and slopes for dose response data were determined from the least squares fit to the logistic regression equation.

[4] = 10 nM [3H]glycine, pH 7.4, rat forebrain SPM, read-out: Ki apparent, Gly
[5] = IC50, 1.0 μM Gly, 1.0 μM glycine

Compound | Ki [1] [µM] | Ki [2, 4] [µM] | Ki [2] [µM] | IC50 [3, 5] [µM] | IC50 ([3]; IC50, 10 μM Gly, 10 μM glycine) [µM]
O=C(O)Cc1c(C(=O)O)[nH]c2ccc(Cl)cc12 [Compound No. 3, 2-carboxy-5-chloro-3-indoleacetic acid] | > 100 | 11.7 | – | – | –
O=C(O)c1[nH]c2cc(Cl)ccc2c1O [Compound No. 11, 6-chloro-3-hydroxyindole-2-carboxylic acid] | > 100 | > 100 | – | – | –
O=C(O)c1[nH]c2ccccc2c1CO [Compound No. 12, 3-hydroxymethylindole-2-carboxylic acid] | > 100 | > 100 | – | – | –
Cn1c(C(=O)O)c(CC(=O)O)c2ccccc21 [compound 2, 2-carboxy-1-methyl-3-indoleacetic acid] | > 100 | > 100 | – | – | –
O=C(O)Cc1c(C(=O)O)[nH]c2ccc(Br)cc12 [compound 4, 5-bromo-2-carboxy-3-indoleacetic acid] | > 100 | 26.2 | – | – | –
O=C(O)Cc1c(C(=O)O)[nH]c2ccc(F)cc12 [compound 5, 2-carboxy-5-fluoro-3-indoleacetic acid] | > 100 | 17.5 | – | – | –
O=C(O)CCc1c(C(=O)O)[nH]c2ccccc12 [compound 7, 2-carboxy-3-indolepropanoic acid] | > 100 | > 100 | – | – | –
O=C(O)CCCc1c(C(=O)O)[nH]c2ccccc12 [compound 8, 2-carboxy-3-indolebutanoic acid] | > 100 | > 100 | – | – | –
O=C(O)CCCCc1c(C(=O)O)[nH]c2ccccc12 [compound 9, 2-carboxy-3-indolepentanoic acid] | > 100 | > 100 | – | – | –
CCC(C(=O)O)c1c(C(=O)O)[nH]c2ccccc12 (stereo not shown) [compound 10, 2-(2-carboxy-3-indole)butanoic acid] | > 100 | > 100 | – | – | –
O=C(O)c1cc2ccccc2[nH]1 [compound 13, indole-2-carboxylic acid] | > 100 | – | > 100 | – | –
O=C(O)c1cc2cc(Cl)ccc2[nH]1 [compound 14, 5-chloroindole-2-carboxylic acid] | > 100 | > 100 | – | – | –
O=C(O)c1cc2cc(F)ccc2[nH]1 [compound 15, 5-fluoroindole-2-carboxylic acid] | > 100 | – | – | – | –
O=C(O)c1cc2cc(Br)ccc2[nH]1 [compound 16, 5-bromoindole-2-carboxylic acid] | > 100 | > 100 | – | – | –
Cc1ccc2[nH]c(C(=O)O)cc2c1 [compound 17, 5-methylindole-2-carboxylic acid] | > 100 | > 100 | – | – | –
COc1ccc2[nH]c(C(=O)O)cc2c1 [compound 18, 5-methoxyindole-2-carboxylic acid] | > 100 | > 100 | – | – | –
CCOC(=O)Cc1c(C(=O)OCC)[nH]c2ccccc12 [compound 19, ethyl 2-carboethoxy-3-indoleacetate] | > 100 | > 100 | – | – | –
O=Cc1c(C(=O)O)[nH]c2ccccc12 [compound 24, 3-formylindole-2-carboxylic acid] | > 100 | – | – | – | –
CCOC(=O)Cc1c(C(=O)O)[nH]c2cc(Cl)ccc12 [compound 31, ethyl 2-carboxy-6-chloro-3-indoleacetate] | > 100 | 0.47 | – | 1.6 ± 0.01 | 16.1 ± 1.4
NC(=O)Cc1c(C(=O)O)[nH]c2cc(Cl)ccc12 [compound 37, 2-carboxy-6-chloro-3-indoleacetamide] | – | 1.2 | – | 3.4 ± 0.9 | –
